PMC12315041 (ACS medicinal chemistry letters, 2025)

Target: T1, RIPK1 (receptor-interacting protein kinase 1) (Homo sapiens, UniProt Q13546)
T1 sequence (Q13546 1-671): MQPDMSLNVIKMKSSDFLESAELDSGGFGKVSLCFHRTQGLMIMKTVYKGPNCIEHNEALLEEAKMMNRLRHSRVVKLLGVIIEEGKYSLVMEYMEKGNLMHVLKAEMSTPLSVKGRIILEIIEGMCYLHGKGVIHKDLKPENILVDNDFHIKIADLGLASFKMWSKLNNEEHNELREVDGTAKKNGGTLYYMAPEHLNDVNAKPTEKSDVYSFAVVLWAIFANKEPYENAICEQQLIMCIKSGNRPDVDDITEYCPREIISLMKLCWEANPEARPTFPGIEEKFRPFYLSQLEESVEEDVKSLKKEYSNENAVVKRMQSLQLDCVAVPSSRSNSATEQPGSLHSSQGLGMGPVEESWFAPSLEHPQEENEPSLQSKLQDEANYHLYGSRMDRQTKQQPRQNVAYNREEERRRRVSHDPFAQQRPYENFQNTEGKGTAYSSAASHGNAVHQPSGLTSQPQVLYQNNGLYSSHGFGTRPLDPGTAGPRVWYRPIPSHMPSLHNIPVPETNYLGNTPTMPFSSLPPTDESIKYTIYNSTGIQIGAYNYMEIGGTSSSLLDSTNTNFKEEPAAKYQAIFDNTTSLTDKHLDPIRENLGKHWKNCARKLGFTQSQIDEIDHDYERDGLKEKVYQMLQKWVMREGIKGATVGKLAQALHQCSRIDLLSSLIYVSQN
Assay: TR-FRET saturation binding

Molecule `Nc1ncnc2c1c(-c1ccc3c(c1)CCN3C(=O)Cc1cccc(OC(F)(F)F)c1)cn2CCCNC(=O)CCc1ccc2n1[B-](F)(F)[N+]1=C(c3ccc[nH]3)C=CC1=C2` [T2-BDP-589, T2-BODIPY-589] has a Kd of 443 nM.
